How the values were obtained:
[1] = test system: Rh30 alveolar cells xenograft; assay: Rh30 alveolar rhabdomyosarcoma orthotopic mouse xenograft, tumor growth; assay type: in vivo; conditions: SCID-beige mice, 20 mg/kg IP every 3 days for 30 days, vs vehicle, n=8, p=0.0002 (Student's t-test)
Procedure: (§1) 2×10^6 cells in 0.2 mL total volume per mouse, from either Rh30 alveolar or RD embryonal cell lines, were injected orthotopically into the left hind leg gastrocnemius muscle of a SCID beige murine model. After 1 week, mice were assigned to control (n=8) or CCI-779 treatment groups (n=8). […] (FIG. 6C) CCI-779 was administered at 20 mg/kg/IP every 3 days for 30 days. Protein extracts from Rh30 and RD mouse xenograft tumors or uninvolved muscle were treated with CCI-779 or vehicle for 30 days and analyzed by Western blotting for S6 and 4EBP1 phosphorylation. […] 5. In vivo xenograft tumor model. Animal studies were performed in accordance with guidelines of the National Institutes of Health Animal Care and Use Committee. Female 4-6 week old beige-SCID mice were purchased from Charles River Laboratories (Wilmington, Mass.). […] Tumor growth was measured every 3 days with calipers, and tumor volume was calculated by the formula V (mm^3)=a×b^2, where a is the longest tumor axis, and b is the shortest tumor axis. […] Suppression of the mTOR pathway was monitored by measuring the phosphorylation of 4EBP1 and S6 ribosomal protein, which are well-established downstream targets of mTOR.

[2] = test system: phosphorylation of 4EBP1 and S6 ribosomal protein (mTOR downstream targets); assay: Western blotting of xenograft tumor and uninvolved muscle extracts for phosphorylation of mTOR downstream targets; assay type: in vivo, mouse; conditions: for phosphorylation of 4EBP1 and S6 (mTOR downstream targets): 20 mg/kg IP every 3 days for 30 days
Procedure: 2×10^6 cells in 0.2 mL total volume per mouse, from either Rh30 alveolar or RD embryonal cell lines, were injected orthotopically into the left hind leg gastrocnemius muscle of a SCID beige murine model. After 1 week, mice were assigned to control (n=8) or CCI-779 treatment groups (n=8). […] (FIG. 6C) CCI-779 was administered at 20 mg/kg/IP every 3 days for 30 days. Protein extracts from Rh30 and RD mouse xenograft tumors or uninvolved muscle were treated with CCI-779 or vehicle for 30 days and analyzed by Western blotting for S6 and 4EBP1 phosphorylation. […] 5. In vivo xenograft tumor model. Animal studies were performed in accordance with guidelines of the National Institutes of Health Animal Care and Use Committee. Female 4-6 week old beige-SCID mice were purchased from Charles River Laboratories (Wilmington, Mass.). Two million viable cells harvested from mid confluent cultures of either Rh30 alveolar or RD embryonal cells in 0.2 ml diluent (5% Tween-80, 5% polyethylene glycol-400 (Sigma, St. Louis, Mo.)) were injected orthotopically into the gastrocnemius muscle in the left hind leg, and after 1 week mice were randomly assigned to control (n=8) or CCI-779 treatment groups (n=8). Mice were treated IP every 3 days for 30 consecutive days with 20 mg/kg/IP of CCI-779 (Developmental Therapeutics Program, National Cancer Institute and Wyeth, Madison, N.J.) or vehicle alone. Tumor growth was measured every 3 days with calipers, and tumor volume was calculated by the formula V (mm^3)=a×b^2, where a is the longest tumor axis, and b is the shortest tumor axis. All mice were sacrificed by asphyxiation with CO2 and underwent necropsy for confirmation of tumor growth. Tumors were excised and snap frozen at -80° C. until analysis. […] Suppression of the mTOR pathway was monitored by measuring the phosphorylation of 4EBP1 and S6 ribosomal protein, which are well-established downstream targets of mTOR.

[3] = test system: RD embryonal cells xenograft; assay: RD embryonal rhabdomyosarcoma orthotopic mouse xenograft, tumor growth; assay type: in vivo; conditions: SCID-beige mice, 20 mg/kg IP every 3 days for 30 days, vs vehicle, n=8, p=0.00008 (Student's t-test)
Procedure: as §1

For CO[C@H]1C[C@@H]2CC[C@@H](C)[C@@](O)(O2)C(=O)C(=O)N2CCCC[C@H]2C(=O)O[C@H]([C@H](C)C[C@@H]2CC[C@@H](OC(=O)C(C)(CO)CO)[C@H](OC)C2)CC(=O)[C@H](C)/C=C(\C)[C@@H](O)[C@@H](OC)C(=O)[C@H](C)C[C@H](C)/C=C/C=C/C=C/1C [CCI-779, 40-[3-hydroxy(hydroxymethyl)methylpropanoate]-rapamycin], the “tumor growth / tumor volume measured with calipers” value (shortened to “tumor growth / tumor volume”) [1] was “profoundly reduced the growth”, the “tumor growth / tumor volume” value ([1]; 20 mg/kg) was “less in the CCI-779 treatment group as compared to the vehicle alone” and the “phosphorylation of 4EBP1 and S6 (mTOR downstream targets)” value ([2]; RD embryonal xenograft derived tumors) was “inhibited the phosphorylation of these downstream targets”. The “phosphorylation of 4EBP1 and S6 (mTOR downstream targets)” value ([2]; Rh30 alveolar xenograft derived tumors) was “inhibited the phosphorylation of these downstream targets”, the “phosphorylation of mTOR pathway substrates pS6 Ser235/236 and 4EBP1 Thr70” value ([2]; time dependent, non-involved muscle and tumor tissue, compared to actin (FIG. 6A)) was “inhibited phosphorylation of mTOR pathway substrates” and the “tumor growth / tumor volume” value [3] was “profoundly reduced the growth”. The “tumor growth / tumor volume” value ([3]; 20 mg/kg) was “less in the CCI-779 treatment group as compared to the vehicle alone”.
